# Measurements published in patent US20220259235A1, “EGFR Inhibitor, Composition, and Preparation Method Therefor” (BETTA PHARMACEUTICALS CO., LTD, priority 2019, published 2022).
# Columns and labels:
# [1] = Liver microsomal clearance test, rat; type: in vitro ADME; conditions: Rat liver microsomes, 0.5 mg/mL, NADPH
# Protocol: (§1) Test 3 Liver Microsomal Clearance Test
# (§2) 1. Prepare 0.5 mg/mL liver microsome diluent containing K-butter and MgCl2:
# (§3) 2.1 Take 356 μL of the liver microsome diluent prepared above and add it to the preset wells of the incubation plate, the number of multiple wells n=1, mark it as the incubation plate.
# (§4) 2.2 Take 4 μL of the positive control compound Verapamil (50 μM) and the working solution of the test compound (200 μM) into the above incubation plate containing 356 μL of liver microsome diluent, and mix well (The dilution solvent from the stock solution to the working solution is a mixed solvent of acetonitrile: methanol: water=1:1:2, and the final concentration of DMSO is ≤0.5%),
# (§5) 2.3 Place the incubation plate in a 37° C. thermostatic oscillator (at shaking speed of 100 rpm) for pre-incubation with 10 min.
# (§6) 2.4 Add 40 μL of 10 mM NADPH (add 40 μL of K-buffer to the wells without NADPH) to each reaction well to start the reaction and start timing.
# (§7) 3. Sample collection and treatment:
# (§8) 3.1 After adding NADPH to start the reaction, immediately take out 50 μL of the sample and add it to the precipitation plate pre-added with 400 μL of stop solution, and shake on an oscillator at 600 rpm for 5 min at room temperature as a 0 min sample.
# (§9) 3.2 At the predetermined time points of 5 min, 15 min and 45 min, take out 50 μL of sample from the incubation plate and add it to the precipitation plate. The subsequent steps were the same as the treatment of 0 min sample. 3.3 After balancing, centrifuge above precipitation plate at 3200 rpm for 10 min at 4° C.
# (§10) 3.4 Take 50 μL of the supernatant after centrifugation and add it to pre-added 20% acetonitrile water at appropriate proportion, shake on an oscillator at 600 rpm for 2 min at room temperature, mix well, and put it into the LC-MS/MS sampler for sample injection.
# (§11) Analysis of Experimental Data
# 1. […]
# [2] = Liver microsomal clearance test, human; type: in vitro ADME; conditions: Human liver microsomes, 0.5 mg/mL, NADPH
# Protocol: as §1, §2, §3, §4, §5, §6, §7, §8, §9, §10, §11
# 1. […]
# [3] = tested on: A431 EGFR wild-type cell line; test: A431 EGFR wild-type cell proliferation assay (CellTiter Glo, 72 h); type: cell-based; conditions: Homo sapiens, A-431, CTG, read-out: A431 EGFR WT IC50
# Method in brief: (§12)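 Cells seeded at 2000/well and exposed 72 h to compound at 1000 to 0.2 nM (0.1% DMSO). Viability read by CellTiter-Glo luminescence; IC50 from four-parameter nonlinear regression of signal vs. log concentration.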
# [4] = Liver microsomal clearance test, dog; type: in vitro ADME; conditions: Dog liver microsomes, 0.5 mg/mL, NADPH
# Protocol: as §1, §2, §3, §4, §5, §6, §7, §8, §9, §10, §11
# 1. […]
# [5] = Liver microsomal clearance test, monkey; type: in vitro ADME; conditions: Monkey liver microsomes, 0.5 mg/mL, NADPH
# Protocol: as §1, §2, §3, §4, §5, §6, §7, §8, §9, §10, §11
# 1. […]
# Ba/F3-L858R/T790M/C797S = Ba/F3-L858R/T790M/C797S (Homo sapiens, UniProt P00533, T790M/C797S/L858R, cells depend on it); test: Ba/F3-L858R/T790M/C797S cell proliferation assay (CellTiter Glo, 72 h); type: cell-based; conditions: CTG, numeric values, read-out: BaF3 L858R/T790M/C797S IC50
# Method in brief: as §12
# Ba/F3-Δ19del/T790M/C797S = Ba/F3-Δ19del/T790M/C797S (Homo sapiens, UniProt P00533, T790M/C797S, cells depend on it, form not given); test: Ba/F3-Δ19del/T790M/C797S cell proliferation assay (CellTiter Glo, 72 h); type: cell-based; conditions: CTG, numeric values, read-out: BaF3 Δ19del/T790M/C797S IC50
# Method in brief: as §12
# Chain of Ba/F3-Δ19del/T790M/C797S (P00533 with tags, fused parts or gaps DEL746-750/T790M/C797S, form open): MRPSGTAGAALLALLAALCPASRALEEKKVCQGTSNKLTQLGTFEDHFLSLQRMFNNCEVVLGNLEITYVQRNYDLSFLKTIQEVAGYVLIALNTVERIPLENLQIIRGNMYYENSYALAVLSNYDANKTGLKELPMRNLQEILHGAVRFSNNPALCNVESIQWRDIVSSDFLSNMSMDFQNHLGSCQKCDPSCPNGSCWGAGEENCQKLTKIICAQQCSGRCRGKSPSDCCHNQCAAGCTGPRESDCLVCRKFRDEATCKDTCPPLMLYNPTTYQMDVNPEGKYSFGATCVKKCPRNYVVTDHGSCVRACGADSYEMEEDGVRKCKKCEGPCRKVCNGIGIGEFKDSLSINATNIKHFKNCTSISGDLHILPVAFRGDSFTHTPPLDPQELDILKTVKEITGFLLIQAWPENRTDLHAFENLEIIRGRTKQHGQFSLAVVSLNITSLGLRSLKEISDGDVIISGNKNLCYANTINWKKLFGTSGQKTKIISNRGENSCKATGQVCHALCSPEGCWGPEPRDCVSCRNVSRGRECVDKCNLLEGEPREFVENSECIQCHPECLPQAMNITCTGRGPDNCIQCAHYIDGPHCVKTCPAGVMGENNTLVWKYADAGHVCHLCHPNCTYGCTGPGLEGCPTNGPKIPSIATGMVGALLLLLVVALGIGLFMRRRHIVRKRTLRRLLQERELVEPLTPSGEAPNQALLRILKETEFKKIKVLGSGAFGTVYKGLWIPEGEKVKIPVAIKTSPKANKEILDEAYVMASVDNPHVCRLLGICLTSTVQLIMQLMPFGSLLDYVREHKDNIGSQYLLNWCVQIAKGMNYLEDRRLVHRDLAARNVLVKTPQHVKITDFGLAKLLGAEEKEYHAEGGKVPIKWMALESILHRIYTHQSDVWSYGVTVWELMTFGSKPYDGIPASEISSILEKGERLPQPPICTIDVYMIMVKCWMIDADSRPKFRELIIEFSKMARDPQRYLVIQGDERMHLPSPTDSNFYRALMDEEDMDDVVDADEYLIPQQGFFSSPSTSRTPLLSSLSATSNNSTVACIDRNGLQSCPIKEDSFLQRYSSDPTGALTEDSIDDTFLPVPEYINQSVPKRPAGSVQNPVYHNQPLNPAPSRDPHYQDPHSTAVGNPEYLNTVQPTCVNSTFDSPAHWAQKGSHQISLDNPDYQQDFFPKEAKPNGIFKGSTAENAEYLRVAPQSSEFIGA
# Chain of Ba/F3-L858R/T790M/C797S (P00533 whole entry T790M/C797S/L858R): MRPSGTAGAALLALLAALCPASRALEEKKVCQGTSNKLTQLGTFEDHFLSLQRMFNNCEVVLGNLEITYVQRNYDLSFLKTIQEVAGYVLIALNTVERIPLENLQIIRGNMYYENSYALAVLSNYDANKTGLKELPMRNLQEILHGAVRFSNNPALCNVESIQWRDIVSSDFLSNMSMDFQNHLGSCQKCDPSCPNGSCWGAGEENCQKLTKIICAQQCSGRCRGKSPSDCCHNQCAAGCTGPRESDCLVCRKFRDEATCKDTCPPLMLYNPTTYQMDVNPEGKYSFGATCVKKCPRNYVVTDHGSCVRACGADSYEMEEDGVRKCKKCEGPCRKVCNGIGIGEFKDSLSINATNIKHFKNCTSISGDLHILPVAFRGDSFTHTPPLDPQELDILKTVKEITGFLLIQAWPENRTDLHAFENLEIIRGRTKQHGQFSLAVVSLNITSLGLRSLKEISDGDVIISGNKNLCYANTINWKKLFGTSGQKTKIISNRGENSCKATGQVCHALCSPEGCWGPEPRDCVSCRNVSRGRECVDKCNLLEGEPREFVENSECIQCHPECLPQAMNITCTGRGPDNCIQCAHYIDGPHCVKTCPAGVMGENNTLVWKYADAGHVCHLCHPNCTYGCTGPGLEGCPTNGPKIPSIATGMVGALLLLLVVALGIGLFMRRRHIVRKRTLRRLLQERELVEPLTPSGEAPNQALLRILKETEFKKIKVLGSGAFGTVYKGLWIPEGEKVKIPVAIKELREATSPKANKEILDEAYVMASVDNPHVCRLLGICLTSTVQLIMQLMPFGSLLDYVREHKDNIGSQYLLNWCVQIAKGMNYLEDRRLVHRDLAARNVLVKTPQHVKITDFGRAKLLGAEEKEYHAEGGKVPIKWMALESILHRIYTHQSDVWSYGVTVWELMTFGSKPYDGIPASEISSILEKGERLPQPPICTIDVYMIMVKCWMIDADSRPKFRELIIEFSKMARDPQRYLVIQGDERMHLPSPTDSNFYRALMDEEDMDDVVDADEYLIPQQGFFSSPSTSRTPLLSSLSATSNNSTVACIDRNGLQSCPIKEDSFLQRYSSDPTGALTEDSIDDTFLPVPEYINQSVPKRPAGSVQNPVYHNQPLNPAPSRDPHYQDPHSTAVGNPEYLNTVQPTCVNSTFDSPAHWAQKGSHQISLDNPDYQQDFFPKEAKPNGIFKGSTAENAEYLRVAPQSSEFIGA
smiles,measurement,setting,value
"COc1cc(N2CCC(N3CCN(C)CC3)CC2)c(-c2cnn(C)c2)cc1Nc1ncc(Cl)c(Nc2ccc3nccnc3c2P(C)(C)=O)n1 [Compound 1, (6-((5-Chloro-2-((2-methoxy-5-(1-methyl-1hydro-pyrazol-4-yl)-4-(4-(4-methylpiperazine-1-yl)piperidin-1-yl)phenyl)amino)pyrimidin-4-yl)amino)quinoxalin-5-yl)dimethylphosphine oxide]","Instrinsic clearance of liver microsomal protein, CLint",[1],4 μL/min/mg proteins
same,"Instrinsic clearance of liver microsomal protein, CLint",[2],2.4 μL/min/mg proteins
same,IC50,[3],112 nM
same,"Instrinsic clearance of liver microsomal protein, CLint",[4],1 μL/min/mg proteins
same,"Instrinsic clearance of liver microsomal protein, CLint",[5],38.8 μL/min/mg proteins
same,GI50,Ba/F3-L858R/T790M/C797S,2.1 nM
same,GI50,Ba/F3-Δ19del/T790M/C797S,2.1 nM
